Experimental data reported in patent US8404738B2 (Hoffmann-La Roche Inc., priority 2011, dated 2013).

Columns and labels:
HDAC6 = molecular target: T1, HDAC6 (Homo sapiens, UniProt Q9UBN7); experiment: Tubulin acetylation cytoblot assay (A549 cells); format: cell-based; conditions: 17-18 h incubation, tubulin acetylation as marker of HDAC6 inhibition, read-out: Tub-Ac EC50
T1 construct: endogenous in cells; host or cells: A549 cells
T1 sequence (Q9UBN7 1-1215): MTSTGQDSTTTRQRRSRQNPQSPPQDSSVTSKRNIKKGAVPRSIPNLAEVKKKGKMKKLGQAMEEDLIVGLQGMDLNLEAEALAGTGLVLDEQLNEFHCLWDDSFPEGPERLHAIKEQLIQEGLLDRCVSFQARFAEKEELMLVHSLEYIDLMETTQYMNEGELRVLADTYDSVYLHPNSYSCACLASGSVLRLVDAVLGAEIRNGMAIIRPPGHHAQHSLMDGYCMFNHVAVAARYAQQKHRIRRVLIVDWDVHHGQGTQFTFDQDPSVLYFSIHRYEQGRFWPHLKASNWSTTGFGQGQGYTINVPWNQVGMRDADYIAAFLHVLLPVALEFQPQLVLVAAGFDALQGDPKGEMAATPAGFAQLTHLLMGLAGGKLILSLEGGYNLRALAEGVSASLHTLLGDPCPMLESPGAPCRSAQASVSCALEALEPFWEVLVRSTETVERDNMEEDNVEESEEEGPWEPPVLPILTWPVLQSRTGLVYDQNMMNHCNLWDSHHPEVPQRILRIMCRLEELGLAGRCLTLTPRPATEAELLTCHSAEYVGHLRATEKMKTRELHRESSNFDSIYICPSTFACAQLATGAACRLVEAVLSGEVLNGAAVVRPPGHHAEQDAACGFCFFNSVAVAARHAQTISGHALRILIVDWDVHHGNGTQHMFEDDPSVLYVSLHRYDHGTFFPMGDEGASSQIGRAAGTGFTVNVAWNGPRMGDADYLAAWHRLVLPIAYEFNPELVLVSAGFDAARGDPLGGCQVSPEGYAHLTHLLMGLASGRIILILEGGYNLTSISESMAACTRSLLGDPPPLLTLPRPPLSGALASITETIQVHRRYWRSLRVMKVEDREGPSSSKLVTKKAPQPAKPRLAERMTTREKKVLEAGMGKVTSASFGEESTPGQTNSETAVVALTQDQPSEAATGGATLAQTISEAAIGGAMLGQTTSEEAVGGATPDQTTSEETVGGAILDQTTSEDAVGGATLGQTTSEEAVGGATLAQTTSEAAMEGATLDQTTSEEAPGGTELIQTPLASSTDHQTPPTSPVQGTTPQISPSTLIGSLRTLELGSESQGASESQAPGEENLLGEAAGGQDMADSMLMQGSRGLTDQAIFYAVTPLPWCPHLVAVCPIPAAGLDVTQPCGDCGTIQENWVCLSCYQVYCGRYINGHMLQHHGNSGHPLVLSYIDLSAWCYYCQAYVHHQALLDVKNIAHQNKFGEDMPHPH
Procedure: Tubulin Acetylation Induction by Novel Compounds: Tubulin Acetylation Cytoblot Assay.
Tubulin acetylation is a PD marker for HDAC6 inhibition. The extent of tubulin acetylation represents the inhibitory effect on HDAC6.
Novel compounds were tested for their ability to inhibit HDAC6 using a cell-based deacetylation assay. Tubulin acetylation was detected by the anti-acetylated tubulin antibody (Sigma) and horse radish peroxidase (HRP) conjugated secondary antibody (KangChen Bio. Tech.). […] 20 μl of diluted compound solution was transferred to the cell culture plate and incubated for 17-18 h. After medium removal and fixation by formaldehyde (3.7% paraformaldehyde in TBS), the cells in the plates were treated with 180 μl of −20° C. MeOH and incubated for 5 min at rt. The cell lysis was incubated with 75 μl of primary anti-acetylated tubulin antibody and secondary HRP conjugated antibody solution (1:750 anti-acetylated tubulin, 1:750 HRP conjugated anti-mouse IgG in antibody dilution buffer not containing sodium azide) for 4 h at 4° C. By adding the HRP substrate, enhanced chemiluminescence (ECL) reagent (GE Healthcare) generated luminescence corresponding to the level of tubulin acetylation. So that 75 μl of ECL was added into the wells and the luminescence from each well was immediately quantified by the plate reader. Based on the luminescence reading, the Tub-Ac EC50s against HDAC6 of the tested compounds were calculated by plotting the curve with XLfit4.0 software. Inhibition %=[signal(sample)−Mean(bottom)]×100/[Mean(top)−Mean(bottom)]

[1] = test system: p21 promoter-luciferase construct; experiment: p21 reporter gene induction (HeLa cells, p21 promoter-luciferase construct); conditions: for p21 RP3: relative gene level of p21 compared to MS275 at 3 μM; for p21 RP10: relative level of p21 compared to MS275 at 10 μM; for p21 RP30: relative level of p21 compared to MS275 at 30 μM;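 as to all read-outs here: transfected HeLa cells exposed to compound for 15 h, luciferase luminescence read from lysates, p21 promoter lacks p53 site, proxy for cellular HDAC1/2/3 inhibition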
recombinant human HDAC8 = molecular target: T2, recombinant human HDAC8 (Homo sapiens, UniProt Q9BY41); experiment: HDAC8 inhibition: recombinant HDAC8 fluorometric assay; format: biochemical; conditions: recombinant human HDAC8, substrate Ac-Arg-His-Lys-Lys(ε-acetyl)-AMC; read-out: HDAC8 IC50
T2 construct: made in house; host or cells: insect cells
T2 sequence (Q9BY41 1-377): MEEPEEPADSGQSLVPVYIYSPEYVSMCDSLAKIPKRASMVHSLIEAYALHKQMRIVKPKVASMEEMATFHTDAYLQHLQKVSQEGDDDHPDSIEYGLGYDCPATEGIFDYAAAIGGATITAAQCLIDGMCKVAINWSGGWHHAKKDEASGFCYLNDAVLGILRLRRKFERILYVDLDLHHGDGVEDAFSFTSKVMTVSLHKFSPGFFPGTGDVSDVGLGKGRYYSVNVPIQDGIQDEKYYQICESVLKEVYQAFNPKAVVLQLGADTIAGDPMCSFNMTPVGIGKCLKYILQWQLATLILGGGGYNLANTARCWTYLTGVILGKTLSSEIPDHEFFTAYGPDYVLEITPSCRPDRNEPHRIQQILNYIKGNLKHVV
Procedure: HDAC8 Inhibition by Novel Compounds: Recombinant HDAC8 Fluorometric Assay.
A competitive inhibitory assay of HDAC8 was carried out by using recombinant HDAC8 and a commercial substrate Ac-Arg-His-Lys-Lys(ε-acetyl)-AMC.
Compounds were tested for their ability to inhibit histone deacetylase 8 using an in vitro deacetylation assay. The enzyme source for this assay was recombinant human HDAC8 protein expressed and purified from insect cells. […] The substrate consisted of a commercial product Ac-Arg-His-Lys-Lys(ε-acetyl)-AMC (substrate is available from Cayman Chemical). […] 1 μl of half-log diluted compounds were added into wells and incubated for 15 min at rt. After that, 8 μl of substrate solution was transferred to the wells and incubated for 30 min at rt. After deacetylation of the substrate by incubation with HDAC8 enzyme, subsequent exposure to a developing reagent produced a fluorophore that was directly proportional to the level of deacetylation. […] The fluorescence signal was measured by a FlexStation3 plate reader (excitation wave length 340-360 nm; emission wave length 440-465 nm). The HDAC8 IC50 was calculated after normalization and curve fitting using XLfit4.0 software. Inhibition %=[Mean(top)−signal(sample)]×100/[Mean(top)−Mean(bottom)].

| EC50 (HDAC6) [µM] | IC50 (recombinant human HDAC8) [µM] | Compound | p21 RP3 [1] | p21 RP10 [1] | p21 RP30 [1] |
| --- | --- | --- | --- | --- | --- |
| 0.41 | 1.92 | CC1(Nc2ccc(C(=O)NO)cc2)C(=O)N(Cc2cccc(Cl)c2)c2ccccc21 (stereo not shown) [Example 93, 4-[1-(3-chloro-benzyl)-3-methyl-2-oxo-2,3-dihydro-1H-indol-3-ylamino)-N-hydroxy-benzamide] | 0.58 | 0.12 | 0.05 |
| – | 0.9 | O=C(NO)c1ccc(NC2CCN(C(=O)c3ccc(F)cc3)C2)cc1 (stereo not shown) [Example 89, 4-[1-(4-Fluoro-benzoyl)-pyrrolidin-3-ylamino]-N-hydroxy-benzamide] | 0.38 | 0.10 | 0.06 |
| – | 1.54 | O=C(NO)c1ccc(NC2CCN(S(=O)(=O)c3ccc(Cl)cc3)C2)cc1 (stereo not shown) [Example 86, 4-[1-(4-Chloro-benzenesulfonyl)-pyrrolidin-3-ylamino]-N-hydroxy-benzamide] | 0.04 | 0.01 | 0.01 |
| – | 2.01 | O=C(NO)c1ccc(NC2CCN(S(=O)(=O)c3ccc(-c4ccccc4)cc3)C2)cc1 (stereo not shown) [Example 87, 4-[1-(Biphenyl-4-sulfonyl)-pyrrolidin-3-ylamino]-N-hydroxy-benzamide] | 0.20 | 0.00 | −0.03 |
| 6.67 | – | O=C(NO)c1ccc(NC2CCN(c3ccc(Cl)c(Cl)c3)C2=O)cc1F (stereo not shown) [Example 68, 4-[1-(3,4-Dichloro-phenyl)-2-oxo-pyrrolidin-3-ylamino]-2-fluoro-N-hydroxy-benzamide] | −0.05 | 0.02 | 0.01 |
| 3.02 | 1.88 | CC(C)(c1ccccc1)N1CC(Nc2ccc(C(=O)NO)cc2)CC1=O (stereo not shown) [Example 76, N-Hydroxy-4-[1-(1-methyl-1-phenyl-ethyl)-5-oxo-pyrrolidin-3-ylamino]-benzamide] | – | – | – |
| – | 2.77 | O=C(NO)c1ccc(NC2CCN(S(=O)(=O)c3ccccc3)C2)cc1 (stereo not shown) [Example 84, 4-(1-Benzenesulfonyl-pyrrolidin-3-ylamino)-N-hydroxy-benzamide] | 0.13 | 0.02 | 0.01 |
| – | 1.35 | O=C(NO)c1ccc(NC2CCN(C(=O)c3ccccc3)C2)cc1 (stereo not shown) [Example 88, 4-(1-Benzoyl-pyrrolidin-3-ylamino)-N-hydroxy-benzamide] | 0.35 | 0.06 | 0.03 |
| – | 0.92 | COc1ccc(C(=O)N2CCC(Nc3ccc(C(=O)NO)cc3)C2)cc1 (stereo not shown) [Example 90, N-Hydroxy-4-[1-(4-methoxy-benzoyl)-pyrrolidin-3-ylamino]-benzamide] | 0.38 | 0.09 | 0.05 |
| 0.15 | 0.98 | CC1(Nc2ccc(C(=O)NO)cc2)C(=O)N(CCc2ccccc2)c2ccccc21 (stereo not shown) [Example 94, N-hydroxy-4-(3-methyl-2-oxo-1-phenethyl-2,3-dihydro-1H-indol-3-ylamino)-benzamide] | – | – | – |

The next lines start with the molecule.

| Compound | EC50 (HDAC6) [µM] | IC50 (recombinant human HDAC8) [µM] | p21 RP3 [1] | p21 RP10 [1] | p21 RP30 [1] |
| --- | --- | --- | --- | --- | --- |
| O=C(NO)c1ccc(NC2CCN(C3(c4ccccc4)CCCC3)C2=O)cc1 (stereo not shown) [Example 55, N-Hydroxy-4-[2-oxo-1-(1-phenyl-cyclopentyl)-pyrrolidin-3-ylamino]-benzamide] | 4.75 | 0.82 | 0.43 | 0.20 | 0.50 |
| CCCCc1ccc(N2CCC(Nc3ccc(C(=O)NO)cc3)C2=O)cc1 (stereo not shown) [Example 15, 4-[1-(4-Butyl-phenyl)-2-oxo-pyrrolidin-3-ylamino]-N-hydroxy-benzamide] | 4.9 | – | 0.09 | 0.06 | 0.04 |
| O=C(NO)c1ccc(NC2CCN(c3ccc(Cl)cc3Cl)C2=O)cc1 (stereo not shown) [Example 23, 4-[1-(2,4-Dichloro-phenyl)-2-oxo-pyrrolidin-3-ylamino]-N-hydroxy-benzamide] | – | 1.41 | 0.10 | 0.04 | 0.03 |
| O=C(NO)c1ccc(NC2CCN(C3(c4ccccc4)CCC3)C2=O)cc1 (stereo not shown) [Example 54, N-Hydroxy-4-[2-oxo-1-(1-phenyl-cyclobutyl)-pyrrolidin-3-ylamino]-benzamide] | – | 0.31 | 0.28 | 0.46 | 0.79 |
| O=C(NO)c1ccc(NC2CCN(c3ccc(C(F)(F)F)cc3)C2=O)cc1 (stereo not shown) [Example 12, N-Hydroxy-4-[2-oxo-1-(4-trifluoromethyl-phenyl)-pyrrolidin-3-ylamino]-benzamide] | – | 0.99 | 0.01 | 0.10 | 0.14 |
| O=C(NO)c1ccc(NC2CCN(CCc3ccccc3)C2=O)cc1 (stereo not shown) [Example 43, N-Hydroxy-4-(2-oxo-1-phenethyl-pyrrolidin-3-ylamino)-benzamide] | – | 0.39 | −0.02 | 0.22 | 0.62 |
| COc1ccc(CN2CCC(Nc3ccc(C(=O)NO)cc3)C2=O)cc1 (stereo not shown) [Example 46, N-Hydroxy-4-[1-(4-methoxy-benzyl)-2-oxo-pyrrolidin-3-ylamino]-benzamide] | – | 0.39 | 0.07 | 0.26 | 0.70 |
| CCC1(Nc2ccc(C(=O)NO)cc2)CCN(C(C)(C)c2ccccc2)C1=O (stereo not shown) [Example 65, 4-[3-Ethyl-1-(1-methyl-1-phenyl-ethyl)-2-oxo-pyrrolidin-3-ylamino]-N-hydroxy-benzamide] | – | 0.56 | 0.00 | 0.00 | 0.00 |
